Reference: patent US20040106590A1, “Methods and reagents for treating infections of clostridium difficile and diseases associated therewith” (priority 2002, published 2004)
In brackets after ≈: the same amount, converted by molar mass.

Legend:
Assay type in all cases: cell-based
B. theta 29741 = experiment: MIC by agar dilution, QC organism B. theta 29741; conditions: QC B. theta 29741, 48 h anaerobic
B. frag 25285 = experiment: MIC by agar dilution, QC organism B. frag 25285; conditions: QC B. frag 25285, 48 h anaerobic
C. difficile = experiment: MIC by agar dilution (NCCLS M11-A5) on C. difficile strains; conditions: for MIC: Clostridioides difficile; for susceptibility of strains: Strains 80 and 29-5-30
[1] = ATCC43255, Sample 31, QC C. diff ATCC 43255
[2] = Sample 23, C. difficile 11-5-03
[3] = Sample 24, C. difficile 13-5-03
[4] = Sample 25, C. difficile 14-5-03
[5] = Sample 26, C. difficile 16-5-03
[6] = Sample 27, C. difficile 17-5-03
[7] = Sample 28, C. difficile 19-5-03
[8] = Sample 29, C. difficile 22-5-03
[9] = Sample 30, C. difficile 29-5-03

| SMILES | MIC (B. theta 29741) | MIC (B. frag 25285) | MIC (C. difficile; [1]) | MIC (C. difficile; Sample 1, C. difficile 18) | MIC (C. difficile; Sample 2, C. difficile 22) | MIC (C. difficile; Sample 3, C. difficile 28) | MIC (C. difficile; Sample 4, C. difficile 40) | MIC (C. difficile; Sample 5, C. difficile 44) | MIC (C. difficile; Sample 6, C. difficile 50) | MIC (C. difficile; Sample 7, C. difficile 60) | MIC (C. difficile; Sample 8, C. difficile 70) | MIC (C. difficile; Sample 9, C. difficile 80) | MIC (C. difficile; Sample 10, C. difficile 101) | MIC (C. difficile; Sample 11, C. difficile 107) | MIC (C. difficile; Sample 12, C. difficile 113) | MIC (C. difficile; Sample 13, C. difficile 116) | MIC (C. difficile; Sample 14, C. difficile 143) | MIC (C. difficile; Sample 15, C. difficile 146) | MIC (C. difficile; Sample 16, C. difficile 154) | MIC (C. difficile; Sample 17, C. difficile 166) | other results |
| --- | --- | --- | --- | --- | --- | --- | --- | --- | --- | --- | --- | --- | --- | --- | --- | --- | --- | --- | --- | --- | --- |
| Cc1ncc([N+](=O)[O-])n1CCO [Metronidazole, metronidazole, reference compound] | 2 µg/mL (≈ 11.7 µM) | 1 µg/mL (≈ 5.84 µM) | 0.5 µg/mL (≈ 2.92 µM) | 0.5 µg/mL (≈ 2.92 µM) | 0.5 µg/mL (≈ 2.92 µM) | 0.5 µg/mL (≈ 2.92 µM) | 0.5 µg/mL (≈ 2.92 µM) | 0.5 µg/mL (≈ 2.92 µM) | 0.5 µg/mL (≈ 2.92 µM) | 0.5 µg/mL (≈ 2.92 µM) | 0.25 µg/mL (≈ 1.46 µM) | 0.5 µg/mL (≈ 2.92 µM) | 0.5 µg/mL (≈ 2.92 µM) | 0.5 µg/mL (≈ 2.92 µM) | 0.5 µg/mL (≈ 2.92 µM) | 0.25 µg/mL (≈ 1.46 µM) | 0.5 µg/mL (≈ 2.92 µM) | 0.5 µg/mL (≈ 2.92 µM) | 0.25 µg/mL (≈ 1.46 µM) | 0.5 µg/mL (≈ 2.92 µM) | MIC (C. difficile; Sample 18, C. difficile 199): 0.25 µg/mL (≈ 1.46 µM); MIC (C. difficile; Sample 19, C. difficile 65C): 0.5 µg/mL (≈ 2.92 µM); MIC (C. difficile; Sample 20, C. difficile 5-5-03): 0.5 µg/mL (≈ 2.92 µM); MIC (C. difficile; Sample 21, C. difficile 6-5-03): 0.5 µg/mL (≈ 2.92 µM); MIC (C. difficile; Sample 22, C. difficile 7-5-03): 0.25 µg/mL (≈ 1.46 µM); MIC (C. difficile; [2]): 0.5 µg/mL (≈ 2.92 µM); MIC (C. difficile; [3]): 0.5 µg/mL (≈ 2.92 µM); MIC (C. difficile; [4]): 0.5 µg/mL (≈ 2.92 µM); MIC (C. difficile; [5]): 0.5 µg/mL (≈ 2.92 µM); MIC (C. difficile; [6]): 0.25 µg/mL (≈ 1.46 µM); MIC (C. difficile; [7]): 0.5 µg/mL (≈ 2.92 µM); MIC (C. difficile; [8]): 0.25 µg/mL (≈ 1.46 µM); MIC (C. difficile; [9]): 0.5 µg/mL (≈ 2.92 µM); susceptibility of strains (C. difficile): less susceptible |
| CO[C@H]1/C=C/O[C@@]2(C)Oc3c(C)c(O)c4c(=O)c(c5oc6cc(N7CCN(CC(C)C)CC7)cc(O)c6nc-5c4c3C2=O)NC(=O)/C(C)=C\C=C\[C@H](C)[C@H](O)[C@@H](C)[C@@H](O)[C@@H](C)[C@H](OC(C)=O)[C@@H]1C [ABI1648, 3′-hydroxy-5′-(4-isobutyl-1-piperazinyl) benzoxazinorifamycin] | 0.03 µg/mL (≈ 0.0319 µM) | 0.03 µg/mL (≈ 0.0319 µM) | 0.002 µg/mL (≈ 0.00213 µM) | 0.001 µg/mL (≈ 0.00106 µM) | 0.001 µg/mL (≈ 0.00106 µM) | 0.002 µg/mL (≈ 0.00213 µM) | 0.001 µg/mL (≈ 0.00106 µM) | 0.001 µg/mL (≈ 0.00106 µM) | 0.002 µg/mL (≈ 0.00213 µM) | 0.002 µg/mL (≈ 0.00213 µM) | 0.001 µg/mL (≈ 0.00106 µM) | > 20.5 µg/mL | 0.004 µg/mL (≈ 0.00425 µM) | 0.001 µg/mL (≈ 0.00106 µM) | 0.004 µg/mL (≈ 0.00425 µM) | 0.002 µg/mL (≈ 0.00213 µM) | ≤ 0.0005 µg/mL | 0.001 µg/mL (≈ 0.00106 µM) | ≤ 0.0005 µg/mL | 0.001 µg/mL (≈ 0.00106 µM) | MIC (C. difficile; Sample 18, C. difficile 199): ≤ 0.0005 µg/mL; MIC (C. difficile; Sample 19, C. difficile 65C): 0.002 µg/mL (≈ 0.00213 µM); MIC (C. difficile; Sample 20, C. difficile 5-5-03): 0.002 µg/mL (≈ 0.00213 µM); MIC (C. difficile; Sample 21, C. difficile 6-5-03): 0.002 µg/mL (≈ 0.00213 µM); MIC (C. difficile; Sample 22, C. difficile 7-5-03): 0.002 µg/mL (≈ 0.00213 µM); MIC (C. difficile; [2]): 0.001 µg/mL (≈ 0.00106 µM); MIC (C. difficile; [3]): ≤ 0.0005 µg/mL; MIC (C. difficile; [4]): 0.001 µg/mL (≈ 0.00106 µM); MIC (C. difficile; [5]): 0.008 µg/mL (≈ 0.0085 µM); MIC (C. difficile; [6]): 0.002 µg/mL (≈ 0.00213 µM); MIC (C. difficile; [7]): 0.002 µg/mL (≈ 0.00213 µM); MIC (C. difficile; [8]): 0.001 µg/mL (≈ 0.00106 µM); MIC (C. difficile; [9]): > 0.5 µg/mL; susceptibility of strains (C. difficile): less susceptible; effectiveness compared with metronidazole (C. difficile; against almost all 31 strains of C. difficile): much more effective than metronidazole |
